For test [1], the target named is Casein kinase I isoform alpha (Homo sapiens) (UniProt P48729). In words: Inhibition of recombinant human GST-tagged full length CK1alpha1 expressed in baculovirus expression system using Ser/Thr 11 as substrate at 0.1 uM incubated for 60 mins by Z'-Lyte assay relative to control.
Test [2] has as its target T1, Interleukin-1 receptor-associated kinase 4 (Homo sapiens) (UniProt Q9NWZ3).
T1 sequence (whole entry): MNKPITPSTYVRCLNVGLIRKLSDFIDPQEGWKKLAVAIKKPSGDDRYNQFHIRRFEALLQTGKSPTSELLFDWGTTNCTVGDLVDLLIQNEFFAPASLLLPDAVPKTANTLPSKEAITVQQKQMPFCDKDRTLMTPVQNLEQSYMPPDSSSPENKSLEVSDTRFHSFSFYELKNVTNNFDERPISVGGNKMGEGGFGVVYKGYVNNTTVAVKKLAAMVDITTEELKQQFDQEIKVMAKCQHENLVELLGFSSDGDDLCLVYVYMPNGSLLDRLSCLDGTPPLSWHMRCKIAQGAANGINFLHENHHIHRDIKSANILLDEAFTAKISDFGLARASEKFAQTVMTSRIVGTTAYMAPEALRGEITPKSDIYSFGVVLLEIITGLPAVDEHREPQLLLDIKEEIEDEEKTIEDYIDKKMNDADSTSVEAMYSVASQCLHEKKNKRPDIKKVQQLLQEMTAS
The test can be described thus: Inhibition of recombinant human His-tagged full length IRAK4 expressed in baculovirus expression system using Ser/Thr 07 as substrate at 0.1 uM incubated for 60 mins by Z'-Lyte assay relative to control.

Test [3] concerns the target Mitogen-activated protein kinase 8 (Homo sapiens) (UniProt P45983). The test can be described thus: Inhibition of recombinant human His-tagged full length JNK1alpha1 expressed in baculovirus expression system using Ser/Thr 04 as substrate at 0.1 uM incubated for 60 mins by Z'-lyte assay relative to control.
Test [4] addresses Tyrosine-protein kinase Fyn (Homo sapiens) (UniProt P06241). The test can be described thus: Inhibition of recombinant human C-terminal His-tagged full length FYN expressed in baculovirus expression system using Tyr 02 as substrate at 0.1 uM incubated for 60 mins by Z'-Lyte assay relative to control.
For test [5], the target named is T2, Aurora kinase A (Homo sapiens) (UniProt O14965).
T2 sequence (whole entry): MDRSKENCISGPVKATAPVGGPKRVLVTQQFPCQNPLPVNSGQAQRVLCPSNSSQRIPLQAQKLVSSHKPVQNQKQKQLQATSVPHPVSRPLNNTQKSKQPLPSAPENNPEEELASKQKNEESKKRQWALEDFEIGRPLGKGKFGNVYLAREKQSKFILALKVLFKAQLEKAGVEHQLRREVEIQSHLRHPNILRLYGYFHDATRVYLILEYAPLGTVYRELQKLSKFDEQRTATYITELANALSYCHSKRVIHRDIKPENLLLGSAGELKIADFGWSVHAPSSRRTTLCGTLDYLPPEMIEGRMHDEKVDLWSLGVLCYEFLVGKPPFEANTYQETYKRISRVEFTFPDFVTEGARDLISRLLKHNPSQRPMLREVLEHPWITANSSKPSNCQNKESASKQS
The test can be described thus: Inhibition of recombinant human His-tagged full length Aurora A expressed in baculovirus expression system using Ser/Thr 01 as substrate at 0.1 uM incubated for 60 mins by Z'-Lyte assay relative to control.

Test [6] has as its target Proto-oncogene tyrosine-protein kinase Src (Homo sapiens) (UniProt P12931). The test can be described thus: Inhibition of recombinant human C-terminal His-tagged full length SRC expressed in baculovirus expression system using Tyr 02 as substrate at 0.1 uM incubated for 60 mins by Z'-Lyte assay relative to control.
Test [7] concerns the target Death-associated protein kinase 1 (Homo sapiens) (UniProt P53355). The test can be described thus: Inhibition of recombinant human N-terminal GST-tagged DAPK1 (1 to 363 residues) expressed in baculovirus expression system using ZIPtide as substrate at 0.1 uM incubated for 60 mins by Adapta assay relative to control.
Test [8] deals with T3, Phosphatidylinositol 4,5-bisphosphate 3-kinase catalytic subunit delta isoform (Homo sapiens) (UniProt O00329).
T3 sequence (whole entry): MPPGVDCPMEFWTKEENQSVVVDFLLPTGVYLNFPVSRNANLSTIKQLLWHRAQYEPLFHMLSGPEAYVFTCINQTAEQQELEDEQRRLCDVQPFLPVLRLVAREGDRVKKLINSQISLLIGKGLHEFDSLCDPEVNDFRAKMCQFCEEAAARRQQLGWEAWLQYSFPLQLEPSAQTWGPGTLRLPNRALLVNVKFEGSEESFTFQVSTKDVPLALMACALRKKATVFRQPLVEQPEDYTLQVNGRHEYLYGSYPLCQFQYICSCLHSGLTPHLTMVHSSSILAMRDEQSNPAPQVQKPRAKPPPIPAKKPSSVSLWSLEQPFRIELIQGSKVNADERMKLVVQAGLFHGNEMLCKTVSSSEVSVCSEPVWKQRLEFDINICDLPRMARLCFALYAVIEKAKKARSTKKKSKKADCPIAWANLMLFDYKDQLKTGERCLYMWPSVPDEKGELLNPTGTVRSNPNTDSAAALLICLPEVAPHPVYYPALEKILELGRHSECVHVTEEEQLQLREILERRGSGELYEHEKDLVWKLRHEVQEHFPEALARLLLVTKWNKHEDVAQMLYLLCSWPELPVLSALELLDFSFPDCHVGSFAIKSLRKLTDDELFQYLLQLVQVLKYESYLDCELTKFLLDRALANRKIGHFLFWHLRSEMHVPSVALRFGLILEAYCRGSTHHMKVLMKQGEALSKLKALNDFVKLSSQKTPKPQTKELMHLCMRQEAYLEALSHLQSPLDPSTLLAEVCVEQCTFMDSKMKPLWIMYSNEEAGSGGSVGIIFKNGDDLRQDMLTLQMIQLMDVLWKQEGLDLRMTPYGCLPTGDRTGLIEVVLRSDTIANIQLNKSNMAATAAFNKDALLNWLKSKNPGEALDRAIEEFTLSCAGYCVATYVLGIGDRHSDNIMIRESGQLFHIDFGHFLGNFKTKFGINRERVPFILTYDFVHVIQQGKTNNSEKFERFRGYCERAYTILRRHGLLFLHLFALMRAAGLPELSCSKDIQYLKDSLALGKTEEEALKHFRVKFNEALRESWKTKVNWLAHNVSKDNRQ
The test can be described thus: Inhibition of recombinant human His-tagged full length PI3Kdelta expressed in baculovirus expression system using PIP:PS as substrate at 0.1 uM incubated for 60 mins by Adapta assay relative to control.

Chain of Death-associated protein kinase 1 (Homo sapiens) (P53355 whole entry, looked up, the tested form may be a part, canonical isoform): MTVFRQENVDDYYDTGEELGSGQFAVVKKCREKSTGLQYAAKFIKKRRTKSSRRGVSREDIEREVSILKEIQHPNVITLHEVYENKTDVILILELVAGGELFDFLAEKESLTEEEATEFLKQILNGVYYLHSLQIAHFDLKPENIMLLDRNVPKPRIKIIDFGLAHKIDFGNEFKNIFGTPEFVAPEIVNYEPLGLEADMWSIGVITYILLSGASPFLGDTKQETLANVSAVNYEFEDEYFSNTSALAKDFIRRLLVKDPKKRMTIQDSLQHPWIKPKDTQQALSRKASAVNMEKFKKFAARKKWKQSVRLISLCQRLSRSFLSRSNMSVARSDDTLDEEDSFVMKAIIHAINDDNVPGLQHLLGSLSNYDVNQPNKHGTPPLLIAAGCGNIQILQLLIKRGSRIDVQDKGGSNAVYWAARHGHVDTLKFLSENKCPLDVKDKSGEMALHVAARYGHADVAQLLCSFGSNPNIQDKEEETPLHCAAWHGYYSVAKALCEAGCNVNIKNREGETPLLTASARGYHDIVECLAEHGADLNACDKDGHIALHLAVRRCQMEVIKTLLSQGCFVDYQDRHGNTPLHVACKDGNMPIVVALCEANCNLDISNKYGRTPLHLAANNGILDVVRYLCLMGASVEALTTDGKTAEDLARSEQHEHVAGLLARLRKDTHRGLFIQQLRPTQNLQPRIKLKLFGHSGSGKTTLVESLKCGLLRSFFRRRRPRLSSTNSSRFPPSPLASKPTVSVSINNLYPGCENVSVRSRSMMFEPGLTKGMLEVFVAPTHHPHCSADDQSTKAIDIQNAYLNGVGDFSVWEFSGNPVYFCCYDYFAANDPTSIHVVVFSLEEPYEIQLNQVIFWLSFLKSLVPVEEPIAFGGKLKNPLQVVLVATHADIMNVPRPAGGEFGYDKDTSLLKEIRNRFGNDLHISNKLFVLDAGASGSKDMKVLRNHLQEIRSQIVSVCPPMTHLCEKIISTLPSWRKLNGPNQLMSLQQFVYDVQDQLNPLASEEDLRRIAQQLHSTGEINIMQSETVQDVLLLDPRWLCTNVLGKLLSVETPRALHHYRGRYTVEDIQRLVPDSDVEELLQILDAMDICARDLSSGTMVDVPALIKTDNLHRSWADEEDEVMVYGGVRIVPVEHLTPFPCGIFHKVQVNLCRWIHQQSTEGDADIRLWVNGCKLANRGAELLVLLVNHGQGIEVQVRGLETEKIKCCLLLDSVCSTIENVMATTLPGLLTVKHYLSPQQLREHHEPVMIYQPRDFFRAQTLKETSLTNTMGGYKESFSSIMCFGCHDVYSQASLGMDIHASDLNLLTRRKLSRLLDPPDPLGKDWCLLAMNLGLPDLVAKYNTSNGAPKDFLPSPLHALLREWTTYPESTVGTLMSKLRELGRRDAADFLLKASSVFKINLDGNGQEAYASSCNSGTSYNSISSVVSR
Chain of Mitogen-activated protein kinase 8 (Homo sapiens) (P45983 whole entry): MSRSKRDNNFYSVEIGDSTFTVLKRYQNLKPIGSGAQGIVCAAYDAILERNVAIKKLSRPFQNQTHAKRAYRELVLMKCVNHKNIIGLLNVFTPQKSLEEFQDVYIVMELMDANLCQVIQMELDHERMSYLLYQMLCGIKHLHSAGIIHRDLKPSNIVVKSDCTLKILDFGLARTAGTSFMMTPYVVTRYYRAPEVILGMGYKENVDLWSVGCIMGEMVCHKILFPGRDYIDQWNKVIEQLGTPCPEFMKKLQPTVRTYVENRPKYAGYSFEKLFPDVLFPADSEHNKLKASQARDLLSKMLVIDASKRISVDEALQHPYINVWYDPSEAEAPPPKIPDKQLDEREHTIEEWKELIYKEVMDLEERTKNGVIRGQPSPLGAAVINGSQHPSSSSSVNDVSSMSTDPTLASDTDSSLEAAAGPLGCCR
Chain of Casein kinase I isoform alpha (Homo sapiens) (P48729 2-337 limits assumed): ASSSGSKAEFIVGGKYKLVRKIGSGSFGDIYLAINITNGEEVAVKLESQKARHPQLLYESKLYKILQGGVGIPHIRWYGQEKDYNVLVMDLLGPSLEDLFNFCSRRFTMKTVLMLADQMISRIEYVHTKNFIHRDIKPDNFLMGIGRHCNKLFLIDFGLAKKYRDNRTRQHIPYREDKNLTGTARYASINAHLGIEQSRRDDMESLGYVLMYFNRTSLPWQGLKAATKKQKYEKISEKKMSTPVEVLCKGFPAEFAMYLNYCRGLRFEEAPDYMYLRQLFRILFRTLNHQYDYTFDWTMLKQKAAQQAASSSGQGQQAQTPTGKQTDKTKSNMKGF
Chain of Tyrosine-protein kinase Fyn (Homo sapiens) (P06241 2-537 limits assumed): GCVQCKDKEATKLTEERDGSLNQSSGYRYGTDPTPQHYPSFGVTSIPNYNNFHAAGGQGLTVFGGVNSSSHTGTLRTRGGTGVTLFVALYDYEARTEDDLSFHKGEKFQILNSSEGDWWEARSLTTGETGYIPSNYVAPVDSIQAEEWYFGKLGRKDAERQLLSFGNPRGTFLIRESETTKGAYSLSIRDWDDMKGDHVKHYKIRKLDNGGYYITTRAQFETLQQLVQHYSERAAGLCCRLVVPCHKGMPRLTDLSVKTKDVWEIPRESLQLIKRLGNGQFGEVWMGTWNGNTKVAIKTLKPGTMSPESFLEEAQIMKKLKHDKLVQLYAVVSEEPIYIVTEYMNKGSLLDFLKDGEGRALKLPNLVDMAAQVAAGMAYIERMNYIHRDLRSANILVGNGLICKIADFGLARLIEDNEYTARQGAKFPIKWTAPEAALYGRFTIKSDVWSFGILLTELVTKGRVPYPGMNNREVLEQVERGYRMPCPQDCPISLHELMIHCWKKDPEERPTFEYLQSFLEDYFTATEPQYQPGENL
Chain of Proto-oncogene tyrosine-protein kinase Src (Homo sapiens) (P12931 2-536 limits assumed): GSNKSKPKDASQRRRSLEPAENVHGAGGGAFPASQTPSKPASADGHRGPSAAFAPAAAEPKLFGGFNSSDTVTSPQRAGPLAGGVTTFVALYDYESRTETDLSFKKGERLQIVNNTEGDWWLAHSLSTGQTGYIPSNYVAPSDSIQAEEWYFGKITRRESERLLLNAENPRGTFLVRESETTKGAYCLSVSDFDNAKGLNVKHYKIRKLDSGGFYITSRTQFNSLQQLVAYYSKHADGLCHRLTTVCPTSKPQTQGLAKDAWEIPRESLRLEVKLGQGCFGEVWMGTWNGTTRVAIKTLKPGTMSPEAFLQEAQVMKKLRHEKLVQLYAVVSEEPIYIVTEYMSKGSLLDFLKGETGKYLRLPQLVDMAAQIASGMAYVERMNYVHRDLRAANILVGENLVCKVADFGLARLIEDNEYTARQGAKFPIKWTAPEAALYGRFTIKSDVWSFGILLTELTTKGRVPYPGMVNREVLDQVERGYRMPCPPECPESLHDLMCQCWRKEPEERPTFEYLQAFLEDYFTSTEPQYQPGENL

Consider `O=C(Nc1c[nH]nc1-c1cc(Cl)ccc1OC(F)F)c1cnn2cccnc12`, for which the inhibition in test [1] turned out to be 10%; in test [2] it was 0%; in test [3], 11%; in test [4], 95%; in test [5], 20%; in test [6] it was 38%. For the same compound, the inhibition in test [7] was determined as 19%; in test [8], 7%.

Take `O=C(Nc1c[nH]nc1-c1cc2ccccc2cc1OC(F)F)c1cnn2cccnc12`: the inhibition in test [1] is -1%; in test [2], 4%; in test [3], -5%; in test [4], 78%; in test [5], 24%; in test [6], 35%. Further, the inhibition in test [7] stood at 22%; in test [8], 6%.

On to `Cn1cc(NC(=O)c2cnn3cccnc23)c(-c2cc(Cl)ccc2OC(F)F)n1`, for which the inhibition in test [1] is 6%; in test [2], -4%; in test [3], 11%; in test [4], 89%; in test [5], 13%; in test [6] it was 28%. In addition, the inhibition in test [7] worked out at 11%; in test [8], 6%.
